{
  "source": "patent US20240279227A1",
  "about": "“FUSED HETEROCYCLIC DERIVATIVES” (Janssen Sciences Ireland Unlimited Company, priority 2021, published 2024)",
  "key": {"[1]": {"tested_on": "HBV", "assay": "Anti-HBV activity in HepG2.117 cell line (intracellular HBV DNA, real-time PCR)", "type": "cell-based, hepatitis B virus", "settings": "HepG2.117 cells, HBV replication induced, 3 days of treatment, intracellular HBV DNA by real-time PCR", "method_in_brief": "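HepG2.117 cells (Tet-off, doxycycline-free HBV replication) induced for HBV replication, then exposed to serially diluted compound for 3 days. Intracellular HBV DNA quantified by real-time PCR with HBV-specific primers and probe.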"}, "[2]": {"tested_on": "HepG2 or HepG2.117 cells", "assay": "Cytotoxicity, ATPlite Luminescence Assay", "type": "cell-based, human", "settings": "3-days incubation unless marked with *, ATPlite viability", "method_in_brief": "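HepG2/HepG2.117; compound exposure 3–4 d; viability readout = ATPlite luminescence.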"}, "[3]": {"assay": "Human liver microsome stability", "type": "in vitro ADME", "settings": "1 μM compound, NADPH 1 mM, pH 7.4, 37° C., 0-60 min; for HLM Metabolism t1/2: pooled human liver microsomes 0.5 mg/mL", "method_in_brief": "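Pooled human liver microsomes (0.5 mg/mL) incubated at 37 °C with 1 μM compound in 0.1 M phosphate pH 7.4, 1 mM MgCl2; 1 mM NADPH starts reaction. Samples quenched in acetonitrile at 0–60 min, analysed by LC-MS against internal standard; half-life from slope of ln peak-area ratio versus time.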"}},
  "data": [
    {"compound": "CNC(=O)[C@@H]1CN(C(C)c2ccc(S(=O)(=O)C3CC3)cc2)C(=O)c2c3c(nn21)C[C@@H](C)N(C(=O)c1ccc(Cl)c(C(F)(F)F)c1)C3", "note": "(single isomer, unassigned) [Compound 20B, (3R,7S)-2-(4-Chloro-3-(trifluoromethyl)benzoyl)-9-((S*)-1-(4-(cyclopropylsulfonyl)phenyl)ethyl)-N,3-dimethyl-10-oxo-1,2,3,4,7,8,9,10-octahydropyrido[4′,3′:3,4]pyrazolo[1,5-a]pyrazine-7-carboxamide]", "values": [
      {"measurement": "EC50", "setting": "[1]", "value": 0.022, "unit": "µM"},
      {"measurement": "CC50", "setting": "[2]", "value": "> 50", "unit": "µM"},
      {"measurement": "HLM Metabolism t1/2", "setting": "[3]", "value": ">180", "unit": "min"}
    ]},
    {"compound": "CNC(=O)[C@@H]1CN(C(C)c2cnc(C(F)(F)F)nc2)C(=O)c2c3c(nn21)C[C@@H](C)N(C(=O)c1ccc(Cl)c(C(F)(F)F)c1)C3", "note": "(single isomer, unassigned) [Compound 43B, (3R,7S)-2-(4-chloro-3-(trifluoromethyl)benzoyl)-N,3-dimethyl-10-oxo-9-((S*)-1-(2-(trifluoromethyl)pyrimidin-5-yl)ethyl)-1,2,3,4,7,8,9,10-octahydropyrido[4′,3′:3,4]pyrazolo[1,5-a]pyrazine-7-carboxamide]", "values": [
      {"measurement": "EC50", "setting": "[1]", "value": 0.057, "unit": "µM"},
      {"measurement": "CC50", "setting": "[2]", "value": "> 50", "unit": "µM"},
      {"measurement": "HLM Metabolism t1/2", "setting": "[3]", "value": ">180", "unit": "min"}
    ]},
    {"compound": "CNC(=O)[C@@H]1CN(C(C)c2ccc(-n3cncn3)cn2)C(=O)c2c3c(nn21)C[C@@H](C)N(C(=O)c1ccc(Cl)c(Cl)c1)C3", "note": "(single isomer, unassigned) [Compound 40B, (3R,7S)-9-((S*)-1-(5-(1H-1,2,4-triazol-1-yl)pyridin-2-yl)ethyl)-2-(3,4-dichlorobenzoyl)-N,3-dimethyl-10-oxo-1,2,3,4,7,8,9,10-octahydropyrido[4′,3′:3,4]pyrazolo[1,5-a]pyrazine-7-carboxamide]", "values": [
      {"measurement": "EC50", "setting": "[1]", "value": 0.097, "unit": "µM"},
      {"measurement": "CC50", "setting": "[2]", "value": "> 50", "unit": "µM"},
      {"measurement": "HLM Metabolism t1/2", "setting": "[3]", "value": ">180", "unit": "min"}
    ]},
    {"compound": "CNC(=O)[C@@H]1CN(C(C)c2ccc(-c3c(C)noc3C)nc2)C(=O)c2c3c(nn21)C[C@@H](C)N(C(=O)c1ccc(Cl)c(Cl)c1)C3", "note": "(single isomer, unassigned) [Compound 35B, (3R,7S)-2-(3,4-dichlorobenzoyl)-9-((S*)-1-(6-(3,5-dimethylisoxazol-4-yl)pyridin-3-yl)ethyl)-N,3-dimethyl-10-oxo-1,2,3,4,7,8,9,10-octahydropyrido[4′,3′:3,4]pyrazolo[1,5-a]pyrazine-7-carboxamide]", "values": [
      {"measurement": "EC50", "setting": "[1]", "value": 0.082, "unit": "µM"},
      {"measurement": "CC50", "setting": "[2]", "value": "> 50", "unit": "µM"},
      {"measurement": "HLM Metabolism t1/2", "setting": "[3]", "value": 130, "unit": "min"}
    ]},
    {"compound": "CNC(=O)[C@@H]1CN(C(C)c2nc(C(F)(F)F)cs2)C(=O)c2c3c(nn21)C[C@@H](C)N(C(=O)c1ccc(Cl)c(Cl)c1)C3", "note": "(single isomer, unassigned) [Compound 44B, (3R,7S)-2-(3,4-dichlorobenzoyl)-N,3-dimethyl-10-oxo-9-((S*)-1-(4-(trifluoromethyl)thiazol-2-yl)ethyl)-1,2,3,4,7,8,9,10-octahydropyrido[4′,3′:3,4]pyrazolo[1,5-a]pyrazine-7-carboxamide]", "values": [
      {"measurement": "EC50", "setting": "[1]", "value": 0.091, "unit": "µM"},
      {"measurement": "CC50", "setting": "[2]", "value": "> 50", "unit": "µM"},
      {"measurement": "HLM Metabolism t1/2", "setting": "[3]", "value": ">180", "unit": "min"}
    ]},
    {"compound": "CNC(=O)[C@@H]1CN(C(C)c2ccc(C(C)(C)O)cn2)C(=O)c2c3c(nn21)C[C@@H](C)N(C(=O)c1ccc(Cl)c(Cl)c1)C3", "note": "(single isomer, unassigned) [Compound 39B, (3R,7S)-2-(3,4-dichlorobenzoyl)-9-((S*)-1-(5-(2-hydroxypropan-2-yl)pyridin-2-yl)ethyl)-N,3-dimethyl-10-oxo-1,2,3,4,7,8,9,10-octahydropyrido[4′,3′:3,4]pyrazolo[1,5-a]pyrazine-7-carboxamide]", "values": [
      {"measurement": "EC50", "setting": "[1]", "value": 0.12, "unit": "µM"},
      {"measurement": "CC50", "setting": "[2]", "value": "> 50", "unit": "µM"},
      {"measurement": "HLM Metabolism t1/2", "setting": "[3]", "value": ">180", "unit": "min"}
    ]},
    {"compound": "CNC(=O)[C@@H]1CN(C(C)c2ccc(-n3nnc(C)n3)cc2)C(=O)c2c3c(nn21)C[C@@H](C)N(C(=O)c1ccc(Cl)c(Cl)c1)C3", "note": "(single isomer, unassigned) [Compound 30A, (3R,7S)-2-(3,4-Dichlorobenzoyl)-N,3-dimethyl-9-((R*)-1-(4-(5-methyl-2H-tetrazol-2-yl)phenyl)ethyl)-10-oxo-1,2,3,4,7,8,9,10-octahydropyrido[4′,3′:3,4]pyrazolo[1,5-a]pyrazine-7-carboxamide]", "values": [
      {"measurement": "EC50", "setting": "[1]; Hepatitis B virus, HepG2.117, 72 h", "value": 0.016, "unit": "µM"},
      {"measurement": "CC50", "setting": "[2]", "value": "> 50", "unit": "µM"},
      {"measurement": "half-life at 1 μM", "setting": "[3]; human, pooled human liver microsomes, pH 7.4, pooled human liver microsomes 0.5 mg/mL, read-out: HLM Metabolism t1/2", "value": "> 180", "unit": "min"}
    ]},
    {"compound": "CNC(=O)[C@@H]1CN(C(C)c2ccc(OC(F)F)nc2)C(=O)c2c3c(nn21)C[C@@H](C)N(C(=O)c1ccc(Cl)c(Cl)c1)C3", "note": "(single isomer, unassigned) [Compound 11B, (3R,7S)-2-(3,4-dichlorobenzoyl)-9-((S*)-1-(6-(difluoromethoxy)pyridin-3-yl)ethyl)-N,3-dimethyl-10-oxo-1,2,3,4,7,8,9,10-octahydropyrido[4′,3′:3,4]pyrazolo[1,5-a]pyrazine-7-carboxamide]", "values": [
      {"measurement": "EC50", "setting": "[1]", "value": 0.052, "unit": "µM"},
      {"measurement": "CC50", "setting": "[2]", "value": 23.4, "unit": "µM"},
      {"measurement": "HLM Metabolism t1/2", "setting": "[3]", "value": ">180", "unit": "min"}
    ]},
    {"compound": "CNC(=O)[C@@H]1CN(C(C)c2ccc(OC)nc2)C(=O)c2c3c(nn21)C[C@@H](C)N(C(=O)c1ccc(Cl)c(Cl)c1)C3", "note": "(single isomer, unassigned) [Compound 31B, (3R,7S)-2-(3,4-dichlorobenzoyl)-9-((S*)-1-(6-methoxypyridin-3-yl)ethyl)-N,3-dimethyl-10-oxo-1,2,3,4,7,8,9,10-octahydropyrido[4′,3′:3,4]pyrazolo[1,5-a]pyrazine-7-carboxamide]", "values": [
      {"measurement": "EC50", "setting": "[1]", "value": 0.018, "unit": "µM"},
      {"measurement": "CC50", "setting": "[2]", "value": "> 50", "unit": "µM"},
      {"measurement": "HLM Metabolism t1/2", "setting": "[3]", "value": ">180", "unit": "min"}
    ]},
    {"compound": "CNC(=O)[C@@H]1CN(C(C)c2ccc(C3CC3)nc2)C(=O)c2c3c(nn21)C[C@@H](C)N(C(=O)c1ccc(Cl)c(Cl)c1)C3", "note": "(single isomer, unassigned) [Compound 32B, (3R,7S)-9-((S*)-1-(6-cyclopropylpyridin-3-yl)ethyl)-2-(3,4-dichlorobenzoyl)-N,3-dimethyl-10-oxo-1,2,3,4,7,8,9,10-octahydropyrido[4′,3′:3,4]pyrazolo[1,5-a]pyrazine-7-carboxamide]", "values": [
      {"measurement": "EC50", "setting": "[1]", "value": 0.011, "unit": "µM"},
      {"measurement": "CC50", "setting": "[2]", "value": 48.7, "unit": "µM"},
      {"measurement": "HLM Metabolism t1/2", "setting": "[3]", "value": ">180", "unit": "min"}
    ]},
    {"compound": "CNC(=O)[C@@H]1CN(C(C)c2ccc(-n3cncn3)cc2)C(=O)c2c3c(nn21)C[C@@H](C)N(C(=O)c1ccc(Cl)c(Cl)c1)C3", "note": "(single isomer, unassigned) [Compound 2B, (3R,7S)-9-((S*)-1-(4-(1H-1,2,4-triazol-1-yl)phenyl)ethyl)-2-(3,4-dichlorobenzoyl)-N,3-dimethyl-10-oxo-1,2,3,4,7,8,9,10-octahydropyrido[4′,3′:3,4]pyrazolo[1,5-a]pyrazine-7-carboxamide]", "values": [
      {"measurement": "EC50", "setting": "[1]", "value": 0.017, "unit": "µM"},
      {"measurement": "CC50", "setting": "[2]", "value": "> 50", "unit": "µM"},
      {"measurement": "HLM Metabolism t1/2", "setting": "[3]", "value": ">180", "unit": "min"}
    ]},
    {"compound": "CNC(=O)[C@@H]1CN(C(C)c2ccc(OC(F)F)c(F)c2)C(=O)c2c3c(nn21)C[C@@H](C)N(C(=O)c1ccc(Cl)c(Cl)c1)C3", "note": "(single isomer, unassigned) [Compound 24B, (3R,7S)-2-(3,4-dichlorobenzoyl)-9-((S*)-1-(4-(difluoromethoxy)-3-fluorophenyl)ethyl)-N,3-dimethyl-10-oxo-1,2,3,4,7,8,9,10-octahydropyrido[4′,3′:3,4]pyrazolo[1,5-a]pyrazine-7-carboxamide]", "values": [
      {"measurement": "EC50", "setting": "[1]", "value": 0.013, "unit": "µM"},
      {"measurement": "CC50", "setting": "[2]", "value": 25.5, "unit": "µM"},
      {"measurement": "HLM Metabolism t1/2", "setting": "[3]", "value": ">180", "unit": "min"}
    ]}
  ]
}
